# Source: patent US20110009616A1, “AGENT FOR PREVENTING ARTERIOSCLEROSIS” (priority 2006, published 2011)
# Where two headings read alike, the source gives them in different places.
# What was measured:
# [1] = target: T1, SR-AII (Homo sapiens, UniProt P21757); assay: DiI-OxLDL uptake into cells expressing SR-AII (Example 7); assay type: cell-based; conditions: FIG. 6
# T1 construct: expressed in transfected cells; host or cells: COS-1 cells (transient, 48 h), pDEST26
# T1 sequence (P21757 1-358 isoform P21757-2): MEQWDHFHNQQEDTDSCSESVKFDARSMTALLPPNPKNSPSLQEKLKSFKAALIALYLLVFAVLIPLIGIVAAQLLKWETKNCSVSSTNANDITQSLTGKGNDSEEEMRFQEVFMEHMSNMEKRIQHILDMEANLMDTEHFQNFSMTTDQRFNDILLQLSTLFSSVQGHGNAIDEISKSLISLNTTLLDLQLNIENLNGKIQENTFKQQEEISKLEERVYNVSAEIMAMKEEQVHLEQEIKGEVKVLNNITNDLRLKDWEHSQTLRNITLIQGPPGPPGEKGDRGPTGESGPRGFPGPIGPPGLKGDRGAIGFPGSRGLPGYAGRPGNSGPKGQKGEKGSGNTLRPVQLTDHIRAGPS
# Experimental: As for cDNA cloning of human SR-AII, the full-length sequence (1,077 base pairs) was obtained by PCR using cDNA derived from human normal lien (Invitrogen) as a template. Additionally a CACC sequence was added to 5′-terminal of the upstream primer. The amplified PCR product was inserted to a pENTR/D-TOPO vector (Invitrogen) and transformed into Mach1 cells (Invitrogen). From the obtained transformant, clones supposed to have the plasmid which was correctly inserted with the SR-AII full-length sequence were selected in usual ways such as a colony PCR method, and the plasmid sequence was sequenced. Furthermore, for the plasmid ascertained to have the correct sequence by sequencing, a site-specific recombination reaction to pDEST26 (Invitrogen) as an expression vector for animal cells was carried out according to a manual. The obtained pDEST26 vector having the full-length sequence of […] was transformed into COS-1 cells (Health Science Research Resources Bank), and cultivated for 48 hours to obtain a transient expressed cell line. […] Nystatin (manufactured by Wako) was used as a specific inhibitor of caveola transport.
# [2] = human; Non-patent Document 15; cited from earlier work
# [3] = rats, intravenous injection; Non-patent Document 17; cited from earlier work
# [4] = target: bLOX-1 (Bos taurus, UniProt P79391); assay: Plate assay: binding of oxidized LDL to recombinant bLOX-1 (Test Example 1); parameters: 6xHis (N); made in house; host or cells: E. coli; species or system bovine
# bLOX-1, sequence (P79391 57-270 limits assumed): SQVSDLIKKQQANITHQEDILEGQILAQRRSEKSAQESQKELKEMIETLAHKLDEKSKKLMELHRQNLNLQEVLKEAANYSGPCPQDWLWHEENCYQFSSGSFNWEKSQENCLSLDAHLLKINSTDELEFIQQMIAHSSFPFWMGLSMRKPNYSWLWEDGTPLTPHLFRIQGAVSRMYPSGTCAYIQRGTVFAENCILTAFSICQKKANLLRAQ
# Experimental: A LOX-1 antagonist activity of the agent for preventing arteriosclerosis obtained in the above-mentioned Example was evaluated on a LOX-1 binding inhibition rate to oxidized LDL using a recombinant LOX-1 protein obtained from E. coli.
# As for the recombinant LOX-1, in cDNA of LOX-1 derived from bovine (bLOX-1) or derived from human (hLOX-1), a sequence to the C-terminal removing a transmembrane region was inserted into a pQE30 vector having a 6-histidine tag sequence (6×His) at the N-terminal (manufactured by Qiagen) so as to have a sequence aligned to a translation frame. The vector was transformed into E. coli able to be controlled by T5 promoter and the expression of each LOX-1 was induced under induction of 1 m M of isopropyl-1-thio-β-D-[…] (IPTG). After the induction of each expression at 37° C. for 3 hours, since the recombinant LOX-1 was obtained from an insoluble fraction, E. coli was lysed in a buffer containing 6 M guanidine hydrochloride and purified by affinity column chromatography using a Ni-NTA agarose column (manufactured by Qiagen) as the marker of 6×His (solvent: phosphoric acid buffer). Furthermore, each of the elution fractions containing LOX-1 was dialyzed in a 20 mM tris buffer (pH 9.0) and a 8M urea containing buffer, applied to a HiTrap Q column, an anion exchanger, (manufactured by Amersham), and eluted and purified with a linear concentration gradient of NaCl. Each of the fractions containing LOX-1 obtained above was reduced in a buffer containing excess amount of DTT (dithiothreitol), and then intramolecular S-S bonds were unwinded by a redox system using a mixture of oxidized […] low molecular thiol compounds. Each LOX-1 obtained above has a binding ability to the oxidized LDL and will be used as a LOX-1 standard for the following plate assays.
# The plate assay was carried out using MaxiSorp Immuno Plate (96-well type, manufactured by NUNC). Each LOX-1 purified above was prepared with a PBS buffer so as to be 5 μg/mL, and 100 μL of the solution was applied to each well. After leaving at 4° C. overnight, each well was washed with 400 μL of a PBS buffer twice (400 μL×2) and 300 μL of a PBS buffer containing 25% BlockAce (manufactured by Dainippon Sumitomo Pharma Co., Ltd.) was applied to each well. After leaving at 4° C. overnight, each well was washed with 400 μL of a PBS buffer twice (400 μL×2), a solution of ethyl pheophorbide a was prepared with a PBS buffer containing 1% bovine serum albumin (BSA) so as to have an appropriate dilution rate, and 100 μL of the solution was applied to each well. After leaving at 4° C. overnight, each well was washed with 400 μL of a PBS buffer three times (400 μL×3), a solution of oxidized LDL was prepared with a PBS buffer so as to be 5 μg/mL, and 100 μL of the solution was applied to eachr well. After leaving at 4° C. overnight, each well was washed with 400 μL of a PBS buffer three times (400 μL×3), a horseradish peroxidase-conjugated anti-apolipoprotein B antibody (manufactured by The Binding Site) was diluted 1000 times with a PBS buffer, and 100 μL of the solution was applied to each well. After leaving at room temperature for 2 hours, each well was washed with 400 μL of a PBS buffer five times (400 μL×5), and 100 μL of a 3,3′,5,5′-tetramethylbenzidine (TMB) peroxidase-enzyme immunoassay (EIA)-substrate-kit reagent (manufactured by Bio-Rad) was applied to each well. After an appropriate reaction period, 50 μL of 2M H2SO4 was applied to each well to stop the reaction. Finally, a LOX-1 antagonist activity (an oxidized LDL binding inhibition rate to LOX-1) was determined by detection at 450 nm.
# [5] = rat; Non-patent Document 16; cited from earlier work
# [6] = test system: normal bovine aortic endothelial cell (BAEC); assay: DiI-OxLDL uptake into normal bovine aortic endothelial cells (Example 7); assay type: cell-based; conditions: FIG. 6
smiles,measurement,setting,value
C=Cc1c(C)c2cc3nc(c4c5[nH]c(cc6nc(cc1[nH]2)C(C)=C6CC)c(C)c5C(=O)[C@@H]4C(=O)OC)[C@@H](CCC(=O)O)[C@@H]3C [pheophorbide a],ability to suppress oxidized LDL uptake by SR-A,[1],the ability to suppress the oxidized LDL uptake by SR-A
same,ingestion causing photosensitivity disease,[2],≥ 500 mg/day
same,accumulation to skin,[3],low
same,main accumulation target,[3],reticuloendothelial system
same,IC50,"[4]; concentration dependence, FIG. 2",~100 nM
same,inhibition activity on binding of oxidized LDL to bLOX-1 (ranking among actives),"[4]; final concentration of 16 μM, FIG. 1",high inhibition activities
same,binding rate of oxidized LDL to bLOX-1 (inhibition of binding),"[4]; final concentration of 16 μM, FIG. 1, control without compounds = 100",inhibit the binding significantly
same,ingestion causing photosensitivity disease,[5],≥ 220 mg/kg
same,"inhibitory activity on DiI-OxLDL uptake, compared with anti-LOX-1 antibody",[6],stronger than that of the anti-LOX-1 antibody
